Assays:
Assay type in all cases: in vivo
[1] = test system: Canola (CN); test: post-emergence test, crop injury; conditions: post-emergent, 28 DAT (Table 12 test)
Description: (§1) Test compositions containing the test compounds were diluted with water to provide the appropriate test rate concentrations.
(§2) For post-emergence testing, seeds of each species for each rate of application of each herbicide solution were planted in 7.5 cm×7.5 cm plastic pots filled with potting soil. The seeds were germinated and the resulting plants were allowed to grow in a greenhouse until they reached a growth stage, such as height, suitable for testing. Treatments were applied using compressed air in a track spray chamber at 30 gallons/acre (280 L/ha) using a TeeJet 8001E nozzle at 40 psi (2.76 bars). Pots of post-emergent treated plants were returned to the greenhouse and not watered for 24 hours after treatment. Thereafter they were regularly watered and fertilized for the duration of the test.
The control of weeds was evaluated in each experimental test at 21 for wheat and 28 days after treatment (DAT) for all species. Data were analyzed using Minitab software at 95% confidence interval. The results, shown as an average of the replications, were compared with results observed in untreated control flats in the same tests. Percent control was determined by a method similar to the 0 to 100 rating system disclosed in “Research Methods in Weed Science,” 2nd ed., B. Truelove, Ed.; Southern Weed Science Society; Auburn University, Auburn, Ala., 1977. […]

[2] = test system: redroot pigweed (AMARE); test: post-emergence test, weed control; conditions: post-emergent, 28 DAT, COC 1%, rate g ai/ha by row: r5 94, r6 125, r7 250, r8 1.25, r9 2.5, r10 5, r11 94+1.25, r13 125+1.25, r15 94+2.5, r17 125+2.5, r19 94+5, r21 125+5
Description: as §1
as §2, with “Treatments were applied using compressed air in a track spray chamber at 30 gallons/acre (280 L/ha) using a TeeJet 8001E nozzle at 40 psi (2.76 bars).” left out
(§3) The control of weeds was evaluated in each experimental test at 21 for wheat and 28 days after treatment (DAT) for all species. […] The rating system is as follows in Table 1.

[3] = test system: Barley (B); test: post-emergence test, crop injury; conditions: post-emergent, 28 DAT, BFL racemic, height at application 14 cm; rate g ai/ha by row: r7 94, r8 125, r9 188, r10 125, r11 250, r12 94+125, r13 125+125, r14 188+125, r15 94+250, r16 125+250, r17 188+250
Description: as §1
as §2, with “Treatments were applied using compressed air in a track spray chamber at 30 gallons/acre (280 L/ha) using a TeeJet 8001E nozzle at 40 psi (2.76 bars).” left out
as §3

For `CCC(Oc1ccc(F)c(C(F)(F)F)c1)C(=O)NCc1ccccc1` (racemic) [BFL, 2-[4-fluoro-3-(trifluoromethyl)phenoxy]-N-(phenylmethyl)butanamide], the “crop injury on canola” value [1] was “significant crop injury”, the “percentage of weed control, Redroot pigweed AMARE” value (“percentage of weed control” for short) ([2]; BFL at 94 g ai/ha) was 61% and the “percentage of weed control” value ([2]; BFL at 125 g ai/ha) was 60%. For the same molecule, the “percentage of weed control” value ([2]; BFL at 250 g ai/ha) was 86% and the “percentage of crop injury, B” value [3] was 1%.
